From patent US9720000B2, “Targeted identification of immunogenic peptides” (The Henry M. Jackson Foundation for the Advancement of …, priority 2005, dated 2017)

Columns and labels:
Assay type in all cases: cell-based
HLA-A2 = target: T1, HLA-A2 (Homo sapiens, UniProt P04439, D140Y/D185E/D98H/E176V/E277Q/G131W/G231S/I119V/I121R/I166T/I218V/L300P/L318F/N151K/N90K/P208A/P217A/Q86G/Q94H/R138H/R169H/T345S); experiment: T2 HLA-stabilization (peptide-binding) assay by flow cytometry; conditions: peptide incubated with T2 cells (25 μg per FIG. 5)
T1 construct: endogenous in cells; host or cells: T2 cells
Description: FIG. 5 depicts a T2 Peptide-binding assay, in which 25 μg of peptide were incubated with T2 cells, levels of HLA-A2 levels were measured by flow cytometry and are indicated as Mean Fluorescence Intensity units.
(§1) T2 HLA-stabilization assays were performed to confirm HLA-A2 binding activity of Her577 by flow cytometry. PBMC from 9 healthy donors were stimulated with Her577 and tested in ^51Cr-release cytotoxicity (CTX) assays against 3 HER2/neu-expressing tumor cell lines.

LNCaP tumor cells = experiment: 51Cr-release cytotoxicity (CTX) assay with peptide-stimulated CTL against LNCaP; conditions: for average specific CTX (% lysis) against LNCaP: peptide-stimulated CTL from healthy donor PBMC, LNCaP (HLA-A2+), n = 2
Description: as §1

MCF-7 tumor cells = experiment: 51Cr-release cytotoxicity (CTX) assay with peptide-stimulated CTL against MCF-7; conditions: for average specific CTX (% lysis) against MCF-7: peptide-stimulated CTL from healthy donor PBMC, MCF-7 (HLA-A2+), n = 5
Description: as §1

SKOV-3 tumor cells = experiment: 51Cr-release cytotoxicity (CTX) assay with peptide-stimulated CTL against SKOV-3; conditions: for average specific CTX (% lysis) against SKOV-3: peptide-stimulated CTL from healthy donor PBMC, SKOV-3 (HLA-A3+), n = 2
Description: as §1

[1] = Her577-stimulated CTL, targets pre-treated with Tz at 50 μg/ml for 24 h, P=0.19

Row | mean fluorescence intensity (HLA-A2 level on T2 cells) (HLA-A2) | Substance | increase in specific CTX versus untreated LNCaP (LNCaP tumor cells; [1]) | average specific CTX (% lysis) against LNCaP (LNCaP tumor cells) | increase in specific CTX versus untreated MCF-7 (MCF-7 tumor cells; [1]) | average specific CTX (% lysis) against MCF-7 (MCF-7 tumor cells) | increase in specific CTX versus untreated SKOV-3 (SKOV-3 tumor cells; [1]) | average specific CTX (% lysis) against SKOV-3 (SKOV-3 tumor cells)
1 | 1275 | Her577: peptide Her577 (aa; 577-585) within the Ab-binding site of trastuzumab on HER2/neu (FGPEADQCV) | 83% | 30 ± 3 % lysis | 16% | 45 ± 3 % lysis | 47% | 49 ± 28 % lysis
2 | 682 | GP2: immunogenic peptide from HER2/neu (IISAVVGIL) [reference compound] |  | 26 ± 9 % lysis |  | 48 ± 1 % lysis |  | 46 ± 5 % lysis
